Target: T1, human mAChR M4 (Homo sapiens, UniProt P08173)
T1 construct: expressed in transfected cells; host or cells: CHO-K1 (American Type Culture Collection), stably expressing hM4 and Gqi5
T1 sequence (P08173 1-479): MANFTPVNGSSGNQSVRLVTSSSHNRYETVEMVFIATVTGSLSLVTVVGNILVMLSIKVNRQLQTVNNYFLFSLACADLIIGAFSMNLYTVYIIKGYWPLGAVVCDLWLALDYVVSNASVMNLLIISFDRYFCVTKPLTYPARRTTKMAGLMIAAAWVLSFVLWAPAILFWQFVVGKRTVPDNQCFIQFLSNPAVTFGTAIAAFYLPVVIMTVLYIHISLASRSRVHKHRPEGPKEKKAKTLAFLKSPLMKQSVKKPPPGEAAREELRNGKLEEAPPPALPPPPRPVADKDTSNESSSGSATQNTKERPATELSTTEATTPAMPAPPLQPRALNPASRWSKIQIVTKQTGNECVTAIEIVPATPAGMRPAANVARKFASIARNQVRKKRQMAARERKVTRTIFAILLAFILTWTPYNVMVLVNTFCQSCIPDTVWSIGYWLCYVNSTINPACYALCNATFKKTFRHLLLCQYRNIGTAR
Assay: mAChR M4 cell-based functional assay: calcium mobilization (Fluo-4, FDSS), potentiation of EC20 acetylcholine response in hM4-Gqi5 CHO-K1 cells
Conditions: human M4; for Emax at 30 µM: CHO-K1, % ACh maximum at 30 μM; for EC50: potentiation of EC20 acetylcholine response, calcium mobilization
Procedure, shortened: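 Readout is the fluorescence-ratio rise at 1 Hz on FDSS, with PAM activity taken as concentration-dependent enhancement of the EC20 acetylcholine response, fitted four-parameter for EC50/Emax. hM4-Gqi5 CHO-K1 cells carried Fluo-4 AM dye; test compounds (11 points, 1:3) preceded EC20 acetylcholine additions at 144 s and 230 s.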

Emax at 30 µM	EC50	Compound
65%	298 nM	COCc1cc(=O)n2nc(N3CCc4ncc(-c5ccc(C)o5)cc4C3)c(C)cc2n1 [Compound 1-372, 2-(methoxymethyl)-8-methyl-7-(3-(5-methylfuran-2-yl)-7,8-dihydro-1,6-naphthyridin-6(5H)-yl)-4H-pyrimido[1,2-b] pyridazin-4-one]
64%	299 nM	COCc1cc(=O)n2nc(N3CCc4ncc(-c5ccc(OC(F)F)nc5)cc4C3)c(C)c(C)c2n1 [Compound 1-373, 7-(3-(6-(difluoromethoxy)pyridin-3-yl)-7,8-dihydro-1,6-naphthyridin-6(5H)-yl)-2-(methoxymethyl)-8,9-dimethyl-4H-pyrimido[1,2-b]pyridazin-4-one]
67%	227 nM	COCc1cc(=O)n2nc(N3CCc4ncc(-c5ccc(OC(F)F)nc5)cc4C3)c(C)cc2n1 [Compound 1-374, 7-(3-(6-(difluoromethoxy)pyridin-3-yl)-7,8-dihydro-1,6-naphthyridin-6(5H)-yl)-2-(methoxymethyl)-8-methyl-4H-pyrimido[1,2-b]pyridazin-4-one]
75%	273 nM	Cc1cc(C(F)F)ncc1-c1cnc2c(c1)CN(c1nn3c(=O)ccnc3cc1C)CC2 [Compound 1-375, 7-(3-(6-(difluoromethyl)-4-methylpyridin-3-yl)-7,8-dihydro-1,6-naphthyridin-6(5H)-yl)-8-methyl-4H-pyrimido [1,2-b]pyridazin-4-one]
83%	898 nM	Cc1cc2nccc(=O)n2nc1N1CCc2ncc(Cc3cccnc3)cc2C1 [Compound 1-378, 8-methyl-7-(3-(pyridin-3-ylmethyl)-7,8-dihydro-1,6-naphthyridin-6(5H)-yl)-4H-pyrimido[1,2-b]pyridazin-4-one]
109%	357 nM	COCc1cc(=O)n2nc(N3CCc4ncc(-c5cnc(Cl)cc5C)cc4C3)c(C)c(C)c2n1 [Compound 1-379, 7-(3-(6-chloro-4-methylpyridin-3-yl)-7,8-dihydro-1,6-naphthyridin-6(5H)-yl)-2-(methoxymethyl)-8,9-dimethyl-4H-pyrimido[1,2-b]pyridazin-4-one]
95%	205 nM	COCc1cc(=O)n2nc(N3CCc4ncc(-c5cnn6c5COCC6)cc4C3)c(C)c(C)c2n1 [Compound 1-380, 7-(3-(6,7-dihydro-4H-pyrazolo[5,1-c][1,4]oxazin-3-yl)-7,8-dihydro-1,6-naphthyridin-6(5H)-yl)-2-(methoxymethyl)-8,9-dimethyl-4H-pyrimido[1,2-b] pyridazin-4-one]
83%	969 nM	COCc1cc(=O)n2nc(N3CCc4ncc(-c5ncc(C)cc5C)cc4C3)c(C)cc2n1 [Compound 1-381, 7-(3-(3,5-dimethylpyridin-2-yl)-7,8-dihydro-1,6-naphthyridin-6(5H)-yl)-2-(methoxymethyl)-8-methyl-4H-pyrimido[1,2-b] pyridazin-4-one]
79%	467 nM	COCc1cc(=O)n2nc(N3CCc4ncc(-c5ncc(F)cc5F)cc4C3)c(C)cc2n1 [Compound 1-382, 7-(3-(3,5-difluoropyridin-2-yl)-7,8-dihydro-1,6-naphthyridin-6(5H)-yl)-2-(methoxymethyl)-8-methyl-4H-pyrimido[1,2-b] pyridazin-4-one]
83%	647 nM	COCc1cc(=O)n2nc(N3CCc4ncc(-c5cc(F)ccn5)cc4C3)c(C)cc2n1 [Compound 1-383, 7-(3-(4-fluoropyridin-2-yl)-7,8-dihydro-1,6-naphthyridin-6(5H)-yl)-2-(methoxymethyl)-8-methyl-4H-pyrimido[1,2-b] pyridazin-4-one]
83%	1030 nM	COCc1cc(=O)n2nc(N3CCc4ncc(-c5cnccc5OC)cc4C3)c(C)cc2n1 [Compound 1-384, 2-(methoxymethyl)-7-(3-(4-methoxypyridin-3-yl)-7,8-dihydro-1,6-naphthyridin-6(5H)-yl)-8-methyl-4H-pyrimido [1,2-b]pyridazin-4-one]
